Results taken from patent US7744933B2, “Use of unsaponifiable components of vegetable oils for preparing a cosmetic and related treatments” (Laboratories Expanscience, priority 1998, dated 2010).

Test system: PAI-1
Assay: 35S-methionine radiolabelling for the synthesis of PAI-1 in chondrocytes (SDS-PAGE, fluorography)
Type: cell-based, bovine
Settings: 24 hours; Piasclédine 300 10 μg/ml or TGF-β1 1 ng/ml; cell+matrix fraction
Protocol: The chondrocytes are isolated from calf cartilages as described in the article by Benya et al. (“The progeny of articular chondrocytes synthesize collagen types I and II trimer, but not type II. Verification by cyanogen bromide peptide analysis”, Biochemistry 1977; 16: 865-872). Primary cultures of chondrocytes are used in order to minimize the phenotypic changes. The cultures are plated at the rate of 6.0×10^6 cells per 175-cm^2 dish (for the extraction of RNA), at the rate of 5.0×10^6 cells per well in 6-well plates (9.6 cm^2) (for the labelling of PAI-1) and at the rate of 1.2×10^6 cells in 100-mm Petri dishes (transfection). […]
The confluent cultures in 6-well plates (9.6 cm^2) are labelled with [^35S]methionine (40 μCi/nil, Arnersham, France) in the presence of Piasclédine 300® (10 μg/nil) and TGF-β1 (1 ng/ml) for 24 hours. […] The band at 46 kD is determined to correspond to PAI-1 by previous immunoblotting using a rabbit polyclonal anti-PAI-1 antibody (Dako, Copenhagen, Denmark) as described in the article by Laiho M et al., reference cited above.
It was observed that the medium contained only minor quantities of newly-synthesized PAI-1. […]

TGF-β1: transforming growth factor β1 protein, 1 ng/ml, marketed by R & D Systems, used as positive control
PAI-1 fraction (synthesis of PAI-1) versus control cultures: significantly greater
